Values joined by “and” are separate entries in the source; they are usually repeats but may differ in a detail not shown here. Identical values can stand only once.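 Results reflect a 48-hour exposure of cells in 96-well plates to compound at five concentrations. GI50 is the concentration that inhibits growth by half. At the TGI there is no net growth.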
Legend:
Experiment in all cases: NCI tumour cell line growth inhibition, 48 h
DLD-1 colon = test system: DLD-1 colon
DMS 273 small cell lung = test system: DMS 273 small cell lung
HOP-18 NSCLC = test system: HOP-18 NSCLC
M19-MEL melanoma = test system: M19-MEL melanoma
MDA-N = test system: MDA-N
P388 leukemia = test system: P388 leukemia
P388/ADR leukemia = test system: P388/ADR leukemia
PC-3 prostate = test system: PC-3 prostate
SNB-78 CNS = test system: SNB-78 CNS
XF 498 CNS = test system: XF 498 CNS
RXF-631 renal = test system: RXF-631 renal

Row | SMILES | TGI (DLD-1 colon) [µM] | TGI (DMS 273 small cell lung) [µM] | TGI (HOP-18 NSCLC) | TGI (M19-MEL melanoma) [µM] | GI50 (MDA-N) [µM] | TGI (MDA-N) | TGI (P388 leukemia) [µM] | TGI (P388/ADR leukemia) [µM] | GI50 (PC-3 prostate) | TGI (PC-3 prostate) | TGI (SNB-78 CNS) | TGI (XF 498 CNS) | GI50 (DMS 273 small cell lung) | GI50 (RXF-631 renal) | TGI (RXF-631 renal)
1 | COC1/C=C/O[C@@]2(C)Oc3c(C)c(O)c4c(O)c(cc(O)c4c3C2=O)NC(=O)/C(C)=C\C=C\[C@H](C)C(O)[C@@H](C)[C@@H](O)[C@@H](C)[C@H](OC(C)=O)[C@@H]1C (stereo not given in full) | 30.4 | 32.7 | 38.8 µM | 26.1 | 19.2 | 39.9 µM and 27.8 µM | 31.2 | 59 | 7.74 µM | 20.4 µM and 34 µM | 95 µM | 29.3 µM | – | – | –
2 | Cc1c(Cl)cccc1NC(=O)CC1Sc2ccccc2NC1=O (stereo not given) | > 100 | > 100 | 32.7 µM and 31.5 µM | > 100 | – | 8.28 µM | – | – | – | > 86.5 µM | 99 µM and > 100 µM | 68.9 µM and 50.2 µM | 10.6 µM and 26 µM | 44.5 µM and 21 µM | > 100 µM and 57.5 µM
3 | O=C(Cn1ccnc1[N+](=O)[O-])N(CCO)CCO | > 1250 | > 1250 | > 1250 µM | > 1250 | – | > 250 µM | > 1250 | > 1250 | – | > 250 µM | > 1250 µM | > 58 µM | – | – | –
4 | CS(=O)(=O)C1S(=O)(=O)OCCOS1(=O)=O | > 100 | > 100 | > 100 µM | > 100 | – | – | – | – | – | – | > 100 µM | > 100 µM | – | – | > 100 µM
5 | COc1ccc(OC)c(/C=C/[N+](=O)[O-])c1 | 8.65 | 6.99 | 3.85 µM | 5.96 | – | 25.3 µM | – | – | 2.53 µM and 12.4 µM | 7.37 µM and 27.9 µM | 58.8 µM | 7.02 µM | – | – | 10.3 µM
